Measured values as given in patent publication US20260184708A1, “PYRIDAZINONES AND METHODS OF USE THEREOF” (GFB (ABC), LLC, priority 2017, published 2026).
pIC50: −log10 of the molar value. Where two headings read alike, the source gives them in different places.

Target: T1, TRPC5 (Homo sapiens, UniProt Q9UL62)
T1 construct: expressed in transfected cells; host or cells: HEK 293
T1 sequence (Q9UL62 1-973): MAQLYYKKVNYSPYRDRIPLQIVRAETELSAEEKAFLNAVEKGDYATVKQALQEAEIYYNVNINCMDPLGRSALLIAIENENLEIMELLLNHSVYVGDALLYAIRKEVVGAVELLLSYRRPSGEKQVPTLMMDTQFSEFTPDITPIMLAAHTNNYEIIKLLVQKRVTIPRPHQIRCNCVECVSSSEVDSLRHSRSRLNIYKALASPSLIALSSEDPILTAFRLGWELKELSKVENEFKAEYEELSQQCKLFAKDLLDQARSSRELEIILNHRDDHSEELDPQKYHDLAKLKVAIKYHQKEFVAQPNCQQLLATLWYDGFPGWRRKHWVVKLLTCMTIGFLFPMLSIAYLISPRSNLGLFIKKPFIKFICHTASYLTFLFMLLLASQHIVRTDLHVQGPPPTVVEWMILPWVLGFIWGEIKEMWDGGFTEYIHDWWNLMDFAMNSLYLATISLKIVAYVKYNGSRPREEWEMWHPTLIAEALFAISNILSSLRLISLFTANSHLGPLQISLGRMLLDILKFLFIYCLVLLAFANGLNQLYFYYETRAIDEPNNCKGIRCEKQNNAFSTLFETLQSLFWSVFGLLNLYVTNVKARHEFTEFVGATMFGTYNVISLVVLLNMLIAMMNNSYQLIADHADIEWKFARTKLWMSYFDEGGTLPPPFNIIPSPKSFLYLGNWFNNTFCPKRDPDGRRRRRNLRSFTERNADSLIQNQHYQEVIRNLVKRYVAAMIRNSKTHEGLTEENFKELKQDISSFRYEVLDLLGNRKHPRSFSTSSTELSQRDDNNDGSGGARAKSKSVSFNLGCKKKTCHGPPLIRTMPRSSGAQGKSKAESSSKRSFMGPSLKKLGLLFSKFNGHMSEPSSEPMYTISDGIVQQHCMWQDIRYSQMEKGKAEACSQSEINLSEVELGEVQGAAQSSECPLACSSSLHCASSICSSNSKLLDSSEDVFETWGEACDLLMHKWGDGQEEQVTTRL
Assay: TRPC5 automated patch clamp assay (Qpatch), current block after rosiglitazone stimulation
Assay type: cell-based
Details: HEK293 cells overexpressing TRPC5
Outline: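 Currents were elicited by 300 ms voltage ramps (−100 to +100 mV, every 10 s, holding −60 mV) in human TRPC5-expressing HEK 293 cells on automated patch clamp, with Rosiglitazone (30 uM) activating the channel. Internal Ca2+ buffered to 1 μM; Hill-equation fitting gave IC50.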

[1] = Table 5, rosiglitazone stimulation, 80 mV, read-out: TRPC5_QP_ XC50_80
[2] = Table 5, rosiglitazone stimulation, 100 mV, read-out: TRPC5_QP_ XC50_100
[3] = Table 6, read-out: TRPC5-QPatch IC50
[4] = Table 3, rosiglitazone stimulation, 80 mV, read-out: TRPC5_QP_ XC50_80
[5] = Table 3, rosiglitazone stimulation, 100 mV, read-out: TRPC5_QP_ XC50_100
[6] = Table 4, rosiglitazone stimulation, 80 mV, read-out: TRPC5_QP_ XC50_80
[7] = Table 4, rosiglitazone stimulation, 100 mV, read-out: TRPC5_QP_ XC50_100

pIC50 [1]	pIC50 [2]	Structure (SMILES)	other results
5.30 to 6.00	–	Cc1cc(F)ccc1CN1CCN(c2cc(-c3ccccc3)n[nH]c2=O)CC1	–
3.30 to 5.00	3.30 to 5.00	O=C1CN(c2cn[nH]c(=O)c2Cl)CCN1Cc1cccc2cn[nH]c12	–
3.30 to 5.00	3.30 to 5.00	Cc1ccccc1CN1CCN(c2c(Cl)cn[nH]c2=O)CC1=O	–
5.30 to 6.00	3.30 to 5.00	Cc1cc(C(F)(F)F)ccc1CN1CCN(c2cn[nH]c(=O)c2Cl)CC1=O	–
5.30 to 6.00	5.00 to 5.30	O=C1CN(c2c(Br)n[nH]c(=O)c2Cl)CCN1Cc1ccccc1C(F)(F)F	–
3.30 to 5.00	3.30 to 5.00	O=C1CN(c2c(Cl)cn[nH]c2=O)CCN1Cc1ccc(OC(F)(F)F)cc1	–
3.30 to 5.00	3.30 to 5.00	O=C1CN(c2cn[nH]c(=O)c2Cl)CCN1Cc1cccc2[nH]ncc12	–
3.30 to 5.00	3.30 to 5.00	Cc1cc(F)ccc1CN1CCN(c2c(Br)n[nH]c(=O)c2Cl)CC1=O	–
5.00 to 5.30	5.00 to 5.30	Cc1cc(F)ccc1CN1CCN(c2cn[nH]c(=O)c2C(F)(F)F)CC1=O	–
3.30 to 5.00	3.30 to 5.00	O=C1CN(c2c(Cl)cn[nH]c2=O)CCN1Cc1cccc(C(F)(F)F)c1	–
3.30 to 5.00	3.30 to 5.00	Cc1cc(F)ccc1CN1CCN(c2c(C)n[nH]c(=O)c2Cl)CC1=O	–
3.30 to 5.00	3.30 to 5.00	Cc1ccccc1CN1CCN(c2ccn[nH]c2=O)CC1=O	–
3.30 to 5.00	3.30 to 5.00	O=C1CN(c2c(Cl)cn[nH]c2=O)CCN1Cc1cccc(OC(F)(F)F)c1	–
5.30 to 6.00	5.30 to 6.00	O=C1CN(c2cn[nH]c(=O)c2C(F)(F)F)CCN1Cc1ccccc1C(F)(F)F	–
3.30 to 5.00	3.30 to 5.00	O=C1N(Cc2ccccc2C(F)(F)F)CCC12CCN(c1cn[nH]c(=O)c1Cl)CC2	–
3.30 to 5.00	3.30 to 5.00	O=C1N(Cc2ccccc2C(F)(F)F)CCC12CCN(c1cn[nH]c(=O)c1Br)CC2	–
3.30 to 5.00	3.30 to 5.00	Cc1cc(F)ccc1CN1CCN(c2c(Br)n[nH]c(=O)c2Cl)CC1	–
5.00 to 5.30	5.00 to 5.30	O=C1CN(c2cn[nH]c(=O)c2Cl)CCN1CC1CCC(F)(F)CC1	–
5.00 to 5.30	5.00 to 5.30	Cc1n[nH]c(=O)c(Cl)c1N1CCN(Cc2ccc(F)cc2C(F)(F)F)C(=O)C1	–
3.30 to 5.00	3.30 to 5.00	O=C1CN(c2c(Cl)cn[nH]c2=O)CCN1Cc1ccc(F)cc1F	–
3.30 to 5.00	3.30 to 5.00	Cc1ncccc1CN1CCN(c2cn[nH]c(=O)c2Cl)CC1=O	–
5.00 to 5.30	5.00 to 5.30	O=C1CN(c2cn[nH]c(=O)c2Cl)CCN1Cc1ccc(F)cc1	–
3.30 to 5.00	3.30 to 5.00	O=C1CN(c2c(Cl)cn[nH]c2=O)CCN1Cc1ccccc1OC(F)(F)F	–
3.30 to 5.00	3.30 to 5.00	Cc1cc(F)ccc1CN1CCN(c2ccn[nH]c2=O)CC1	–
–	–	O=c1[nH]ncc(N2CCc3c(ncn3-c3cccnc3C(F)(F)F)C2)c1Cl	pIC50 [3]: 5.30 to 6.00
–	–	Cc1ccccc1CN1CCN(c2cn[nH]c(=O)c2Cl)CC1=O [drawing 631]	pIC50 (rosiglitazone stimulation, 80 mV, read-out: TRPC5_QP XC50_80): 6.00 to 11.00; pIC50 (rosiglitazone stimulation, 100 mV, read-out: TRPC5_QP XC50_100): 6.00 to 11.00
–	–	Cc1ccccc1CN1CCN(c2cn[nH]c(=O)c2Br)C(C)C1 (stereo not drawn) [drawing 647]	pIC50 [4]: 5.30 to 6.00; pIC50 [5]: 5.30 to 6.00

pIC50 [1]	pIC50 [2]	Structure (SMILES)	other results
–	–	Cc1ccccc1CN1CCN(c2cn[nH]c(=O)c2Br)CC1C (stereo not drawn) [drawing 649]	pIC50 [4]: 3.30 to 5.00; pIC50 [5]: 3.30 to 5.00
–	–	Cc1ccccc1CN1CCN(c2cn[nH]c(=O)c2Br)C(C)C1 (stereo not drawn) [drawing 650]	pIC50 [4]: 3.30 to 5.00; pIC50 [5]: 3.30 to 5.00
–	–	Cc1ccccc1CN1CCN(c2cn[nH]c(=O)c2Br)CC1C (stereo not drawn) [drawing 651]	pIC50 [5]: 3.30 to 5.00
–	–	Cc1ccccc1CN1CCN(c2cn[nH]c(=O)c2Cl)CC1=O [drawing 664]	pIC50 [4]: 6.00 to 11.00; pIC50 [5]: 6.00 to 11.00
–	–	O=C1CN(c2cn[nH]c(=O)c2Br)CCN1Cc1cccc2ccccc12 [drawing 665]	pIC50 [4]: 6.00 to 11.00; pIC50 [5]: 6.00 to 11.00
–	–	CN(C)C(=O)CN1CCN(c2cn[nH]c(=O)c2Cl)CC1 [drawing 673]	pIC50 [4]: 3.30 to 5.00; pIC50 [5]: 3.30 to 5.00
–	–	O=c1[nH]ncc(N2CCN(Cc3ccccc3Cl)CC2)c1Cl [drawing 676]	pIC50 [4]: 5.30 to 6.00; pIC50 [5]: 5.30 to 6.00
–	–	Cc1cc(F)ccc1CN1CCN(c2cn[nH]c(=O)c2Cl)CC1 [drawing 679]	pIC50 [4]: 5.30 to 6.00; pIC50 [5]: 5.30 to 6.00
–	–	O=C1CN(c2cn[nH]c(=O)c2Cl)CCN1Cc1ccc(F)cc1Cl [drawing 682]	pIC50 [4]: 5.30 to 6.00; pIC50 [5]: 5.30 to 6.00
–	–	O=C1CN(c2cn[nH]c(=O)c2Cl)CCN1Cc1ccc(F)cc1F [drawing 686]	pIC50 [4]: 5.30 to 6.00; pIC50 [5]: 5.30 to 6.00
–	–	O=C1CN(c2cn[nH]c(=O)c2Cl)CCN1Cc1ccccc1OC(F)(F)F [drawing 689]	pIC50 [4]: 6.00 to 11.00; pIC50 [5]: 6.00 to 11.00
–	–	O=c1[nH]ncc(N2CCN(Cc3ccccc3C(F)(F)F)CC2)c1Cl [drawing 694]	pIC50 [4]: 5.30 to 6.00; pIC50 [5]: 5.30 to 6.00
–	–	Cc1ccccc1CN1CCN(c2cn[nH]c(=O)c2CCC(C)C)CC1=O [drawing 695]	pIC50 [4]: 3.30 to 5.00; pIC50 [5]: 3.30 to 5.00
–	–	O=c1[nH]ncc(N2CCN(Cc3ccccc3C(F)(F)F)CC2)c1Cl [drawing 699]	pIC50 [6]: 5.30 to 6.00; pIC50 [7]: 5.30 to 6.00
–	–	Cc1ccccc1CN1CCN(c2cn[nH]c(=O)c2CCC(C)C)CC1=O [drawing 700]	pIC50 [6]: 3.30 to 5.00; pIC50 [7]: 3.30 to 5.00
–	–	CN(C)C(=O)CN1CCN(c2cn[nH]c(=O)c2Cl)CC1 [drawing 708]	pIC50 [6]: 3.30 to 5.00; pIC50 [7]: 3.30 to 5.00
–	–	C[C@@H]1CN(Cc2ccccc2C(F)(F)F)CCN1c1cn[nH]c(=O)c1Cl [drawing 716]	pIC50 [6]: 5.30 to 6.00; pIC50 [7]: 5.30 to 6.00
–	–	Cc1ncccc1CN1CCN(c2cn[nH]c(=O)c2Cl)CC1 [drawing 719]	pIC50 [6]: 6.00 to 11.00; pIC50 [7]: 6.00 to 11.00
–	–	Cc1cc(Cl)ccc1CN1CCN(c2cn[nH]c(=O)c2Cl)CC1=O [drawing 737]	pIC50 [6]: 5.30 to 6.00; pIC50 [7]: 5.30 to 6.00
–	–	Cc1ccccc1[C@H](C)N1CCN(c2cn[nH]c(=O)c2Cl)CC1=O [drawing 743]	pIC50 [6]: 6.00 to 11.00; pIC50 [7]: 6.00 to 11.00
5.30 to 6.00	5.30 to 6.00	COc1cc(F)ccc1CN1CCN(c2cn[nH]c(=O)c2Cl)CC1=O [drawing 772]	–
6.00 to 11.00	6.00 to 11.00	Cc1ccccc1Cn1cnc2c1CCN(c1cn[nH]c(=O)c1Cl)C2 [drawing 830]	–
5.30 to 6.00	5.30 to 6.00	O=c1[nH]ncc(N2CCc3c(ncn3Cc3ccccc3)C2)c1Cl [drawing 831]	–
5.30 to 6.00	5.30 to 6.00	C[C@H](c1ccccc1)n1cnc2c1CCN(c1cn[nH]c(=O)c1Cl)C2 [drawing 833]	–
–	–	O=c1[nH]ncc(N2CCc3c(ncn3Cc3ccccc3C(F)F)C2)c1Cl [drawing 839]	pIC50 [3]: 5.00 to 5.30
–	–	CCc1cc(F)ccc1Cn1cnc2c1CCN(c1cn[nH]c(=O)c1Cl)C2 [drawing 889]	pIC50 [3]: 6.00 to 11.00
–	–	N#Cc1c(N2CCc3c(nnn3Cc3ccccc3C(F)(F)F)C2)cn[nH]c1=O [drawing 891]	pIC50 [3]: 5.30 to 6.00
